Patent US10696707B2, “Polyene macrolide derivative” (Shionogi & Co., Ltd., priority 2014, dated 2020)

tested on: red blood cells (5% RBC suspension); test: Test Example 2-1: in vitro hemolytic activity test (upper limit 50, 80, 100 or 200 μmol/L); assay type: cell-based; settings: Erythrocyte, 1 h, read-out: hemolysis IC50
Procedure: Nephrotoxic potentials of the compounds of the present invention except the compounds whose X is —N(R^F)—CO—X^1 and X^1 is the group represented by formula (III) and T is —N(R^a5)— were investigated by in vitro hemolytic activity test under the condition, in that, the upper limit was 50 μmol/L, 80 μmol/L, 100 μmol/L, or 200 μmol/L as the required concentration to 50% of hemolysis (IC50).
Defibrinated sterile blood was centrifuged at 700×g for 3 minutes and, and the supernatant was removed for 100% of red blood cells. After the cleaning with physiological saline, the washed blood cells was suspended in the medium (Earle's balanced salt sodium, bicarbonate, 0.1 g/L L-glutamine without phenol red), and was diluted by 5% (5% RBC suspension).
The washed blood was diluted by 5% in water for injection (solution of complete hemolysis), and was used as the indication of optical density for complete hemolysis.
The compounds of the present invention solution in DMSO (several and doubling dilutions starting from 2.5 mmol/L, 4 mmol/L, 5 mmol/L, or 10 mmol/L), DMSO as the negative control, and Amphotericin B as the positive control were used, and each 5 μL of these was added in to a well of V-form 96 well type microplate.
Finally, the maximum concentration of the compounds of the present invention solution in DMSO was 50 μmol/L, 80 μmol/L, 100 μmol/L, or 200 μmol/L by adding 245 μL of the medium or 5% RBC suspension into the well.
Two hundred fifty μL of the solution of complete hemolysis was added into another well and the microplate was incubated at 37° C. in 5% of CO2 concentration for an hour.
After the incubation, each 100 μL of supernatants in wells was collected by centrifugation of the microplate at 300×g for 5 minutes and was located on a well of flat-form 96 well type microplate. An absorbance of each supernatant was measured at wavelength of 540 nm.
Percent hemolysis was calculated by using the followed equation. The required concentration to 50% of hemolysis (IC50) was calculated based on the percent hemolysis. […] Hemolysis (%)=(CR−VM)×100÷(VL−VR) Where:
CR: Absorbance of 5% RBC suspension incubated with the compounds of the present invention solution in DMSO
VM: Absorbance of medium incubated with the compounds of the present invention solution in DMSO
VL: Absorbance of solution of complete hemolysis
VR: Absorbance of 5% RBC suspension incubated with DMSO
The “hemolysis method” in the table means any tests the upper concentration of above IC50 are 50 μmol/L, 80 μmol/L, 100 μmol/L or 200 μmol/L. The “>50”, “>80”, “>100” or “>200” in the table means above IC50 value exceeded the each upper concentration.

SMILES	IC50
C[C@@H]1[C@H](O)[C@@H](C)/C=C/C=C/C=C/C=C/C=C/C=C/C=C/[C@H](O[C@@H]2O[C@H](C)[C@@H](O)[C@H](N)[C@@H]2O)C[C@@H]2O[C@](O)(C[C@@H](O)C[C@@H](O)[C@H](O)CC[C@@H](O)C[C@@H](O)CC(=O)O[C@H]1C)C[C@H](O)[C@H]2c1nc(-c2ccc(N(C)C)cc2)no1 [I-390]	> 50 µM

same assay, conditions: Erythrocyte, 1 h; hemolysis method 50 (upper concentration 50 μmol/L); 5% RBC suspension, 37° C., one hour; read-out: hemolysis IC50

SMILES	IC50
C[C@@H]1[C@H](O)[C@@H](C)/C=C/C=C/C=C/C=C/C=C/C=C/C=C/[C@H](O[C@@H]2O[C@H](C)[C@@H](O)[C@H](N)[C@@H]2O)C[C@@H]2O[C@](O)(C[C@@H](O)C[C@@H](O)[C@H](O)CC[C@@H](O)C[C@@H](O)CC(=O)O[C@H]1C)C[C@H](O)[C@H]2NC(=O)NC(CO[C@H]1O[C@H](CO)[C@@H](O)[C@H](O)[C@@H]1O)CO[C@H]1O[C@H](CO)[C@@H](O)[C@H](O)[C@@H]1O [I-254]	> 50 µM
C[C@@H]1[C@H](O)[C@@H](C)/C=C/C=C/C=C/C=C/C=C/C=C/C=C/[C@H](O[C@@H]2O[C@H](C)[C@@H](O)[C@H](N)[C@@H]2O)C[C@@H]2O[C@](O)(C[C@@H](O)C[C@@H](O)[C@H](O)CC[C@@H](O)C[C@@H](O)CC(=O)O[C@H]1C)C[C@H](O)[C@H]2c1nc(-c2ccncc2)no1 [I-392]	> 50 µM
C[C@@H]1[C@H](O)[C@@H](C)/C=C/C=C/C=C/C=C/C=C/C=C/C=C/[C@H](O[C@@H]2O[C@H](C)[C@@H](O)[C@H](N)[C@@H]2O)C[C@@H]2O[C@](O)(C[C@@H](O)C[C@@H](O)[C@H](O)CC[C@@H](O)C[C@@H](O)CC(=O)O[C@H]1C)C[C@H](O)[C@H]2NC(=O)N1CC(O[C@H]2OC(CO)[C@@H](O)[C@H](O)C2O)C1 (stereo partly drawn) [I-303]	> 50 µM
C[C@@H]1[C@H](O)[C@@H](C)/C=C/C=C/C=C/C=C/C=C/C=C/C=C/[C@H](O[C@@H]2O[C@H](C)[C@@H](O)[C@H](N)[C@@H]2O)C[C@@H]2O[C@](O)(C[C@@H](O)C[C@@H](O)[C@H](O)CC[C@@H](O)C[C@@H](O)CC(=O)O[C@H]1C)C[C@H](O)[C@H]2NC(=O)NC1CC1 [I-41]	> 50 µM

same assay, conditions: hemolysis method 50 (upper concentration 50 μmol/L); 5% RBC suspension, 37° C., one hour; read-out: hemolysis IC50

SMILES	IC50
C[C@@H]1[C@H](O)[C@@H](C)/C=C/C=C/C=C/C=C/C=C/C=C/C=C/[C@H](O[C@@H]2O[C@H](C)[C@@H](O)[C@H](N)[C@@H]2O)C[C@@H]2O[C@](O)(C[C@@H](O)C[C@@H](O)[C@H](O)CC[C@@H](O)C[C@@H](O)CC(=O)O[C@H]1C)C[C@H](O)[C@H]2NC(=O)NC(CCO)C(=O)O (stereo partly drawn) [I-249]	> 50 µM
C[C@@H]1[C@H](O)[C@@H](C)/C=C/C=C/C=C/C=C/C=C/C=C/C=C/[C@H](O[C@@H]2O[C@H](C)[C@@H](O)[C@H](N)[C@@H]2O)C[C@@H]2O[C@](O)(C[C@@H](O)C[C@@H](O)[C@H](O)CC[C@@H](O)C[C@@H](O)CC(=O)O[C@H]1C)C[C@H](O)[C@H]2NC(=O)NC1(C#N)COC1 [I-258]	> 50 µM
C[C@@H]1[C@H](O)[C@@H](C)/C=C/C=C/C=C/C=C/C=C/C=C/C=C/[C@H](O[C@@H]2O[C@H](C)[C@@H](O)[C@H](N)[C@@H]2O)C[C@@H]2O[C@](O)(C[C@@H](O)C[C@@H](O)[C@H](O)CC[C@@H](O)C[C@@H](O)CC(=O)O[C@H]1C)C[C@H](O)[C@H]2NC(=O)NCCOCCOCCO [I-11]	> 50 µM
C[C@@H]1[C@H](O)[C@@H](C)/C=C/C=C/C=C/C=C/C=C/C=C/C=C/[C@H](O[C@@H]2O[C@H](C)[C@@H](O)[C@H](N)[C@@H]2O)C[C@@H]2O[C@](O)(C[C@@H](O)C[C@@H](O)[C@H](O)CC[C@@H](O)C[C@@H](O)CC(=O)O[C@H]1C)C[C@H](O)[C@H]2NC(=O)NC(CNS(N)(=O)=O)CN(C)C (stereo partly drawn) [I-234]	> 50 µM
C[C@@H]1[C@H](O)[C@@H](C)/C=C/C=C/C=C/C=C/C=C/C=C/C=C/[C@H](O[C@@H]2O[C@H](C)[C@@H](O)[C@H](N)[C@@H]2O)C[C@@H]2O[C@](O)(C[C@@H](O)C[C@@H](O)[C@H](O)CC[C@@H](O)C[C@@H](O)CC(=O)O[C@H]1C)C[C@H](O)[C@H]2NC(=O)NCCOCCS(C)(=O)=O [I-241]	> 50 µM
C[C@@H]1[C@H](O)[C@@H](C)/C=C/C=C/C=C/C=C/C=C/C=C/C=C/[C@H](O[C@@H]2O[C@H](C)[C@@H](O)[C@H](N)[C@@H]2O)C[C@@H]2O[C@](O)(C[C@@H](O)C[C@@H](O)[C@H](O)CC[C@@H](O)C[C@@H](O)CC(=O)O[C@H]1C)C[C@H](O)[C@H]2NC(=O)N(O)C[C@@H](O)C(=O)O [I-295]	> 50 µM

same assay, conditions: hemolysis method 80 (upper concentration 80 μmol/L); 5% RBC suspension, 37° C., one hour; read-out: hemolysis IC50

SMILES	IC50
C[C@@H]1[C@H](O)[C@@H](C)/C=C/C=C/C=C/C=C/C=C/C=C/C=C/[C@H](O[C@@H]2O[C@H](C)[C@@H](O)[C@H](N)[C@@H]2O)C[C@@H]2O[C@](O)(C[C@@H](O)C[C@@H](O)[C@H](O)CC[C@@H](O)C[C@@H](O)CC(=O)O[C@H]1C)C[C@H](O)[C@H]2NC(=O)NCCc1ccccn1 [I-15]	> 80 µM
C[C@@H]1[C@H](O)[C@@H](C)/C=C/C=C/C=C/C=C/C=C/C=C/C=C/[C@H](O[C@@H]2O[C@H](C)[C@@H](O)[C@H](N)[C@@H]2O)C[C@@H]2O[C@](O)(C[C@@H](O)C[C@@H](O)[C@H](O)CC[C@@H](O)C[C@@H](O)CC(=O)O[C@H]1C)C[C@H](O)[C@H]2NC(=O)N1CCN(CCCOc2ccccc2)CC1 [I-24]	> 80 µM
C[C@@H]1[C@H](O)[C@@H](C)/C=C/C=C/C=C/C=C/C=C/C=C/C=C/[C@H](O[C@@H]2O[C@H](C)[C@@H](O)[C@H](N)[C@@H]2O)C[C@@H]2O[C@](O)(C[C@@H](O)C[C@@H](O)[C@H](O)CC[C@@H](O)C[C@@H](O)CC(=O)O[C@H]1C)C[C@H](O)[C@H]2NC(=O)N1CCC(N(C)C)C1 (single isomer, unassigned) [I-50]	> 80 µM
C[C@@H]1[C@H](O)[C@@H](C)/C=C/C=C/C=C/C=C/C=C/C=C/C=C/[C@H](O[C@@H]2O[C@H](C)[C@@H](O)[C@H](N)[C@@H]2O)C[C@@H]2O[C@](O)(C[C@@H](O)C[C@@H](O)[C@H](O)CC[C@@H](O)C[C@@H](O)CC(=O)O[C@H]1C)C[C@H](O)[C@H]2NC(=O)N1CCC(N(C)C)CC1 [I-54]	> 80 µM
C[C@@H]1[C@H](O)[C@@H](C)/C=C/C=C/C=C/C=C/C=C/C=C/C=C/[C@H](O[C@@H]2O[C@H](C)[C@@H](O)[C@H](N)[C@@H]2O)C[C@@H]2O[C@](O)(C[C@@H](O)C[C@@H](O)[C@H](O)CC[C@@H](O)C[C@@H](O)CC(=O)O[C@H]1C)C[C@H](O)[C@H]2NC(=O)N1CCCN(CCCN2CCOCC2)CC1 [I-23]	79 µM
C[C@@H]1[C@H](O)[C@@H](C)/C=C/C=C/C=C/C=C/C=C/C=C/C=C/[C@H](O[C@@H]2O[C@H](C)[C@@H](O)[C@H](N)[C@@H]2O)C[C@@H]2O[C@](O)(C[C@@H](O)C[C@@H](O)[C@H](O)CC[C@@H](O)C[C@@H](O)CC(=O)O[C@H]1C)C[C@H](O)[C@H]2NC(=O)NCCN(C)C [I-51]	> 80 µM

same assay, conditions: hemolysis method 100 (upper concentration 100 μmol/L); 5% RBC suspension, 37° C., one hour; read-out: hemolysis IC50

SMILES	IC50
C[C@@H]1[C@H](O)[C@@H](C)/C=C/C=C/C=C/C=C/C=C/C=C/C=C/[C@H](O[C@@H]2O[C@H](C)[C@@H](O)[C@H](N)[C@@H]2O)C[C@@H]2O[C@](O)(C[C@@H](O)C[C@@H](O)[C@H](O)CC[C@@H](O)C[C@@H](O)CC(=O)O[C@H]1C)C[C@H](O)[C@H]2NC(=O)NCCCN(C)C [I-7]	81 µM
C[C@@H]1[C@H](O)[C@@H](C)/C=C/C=C/C=C/C=C/C=C/C=C/C=C/[C@H](O[C@@H]2O[C@H](C)[C@@H](O)[C@H](N)[C@@H]2O)C[C@@H]2O[C@](O)(C[C@@H](O)C[C@@H](O)[C@H](O)CC[C@@H](O)C[C@@H](O)CC(=O)O[C@H]1C)C[C@H](O)[C@H]2NC(=O)NCCCN1CCOCC1 [I-8]	96 µM
C[C@@H]1[C@H](O)[C@@H](C)/C=C/C=C/C=C/C=C/C=C/C=C/C=C/[C@H](O[C@@H]2O[C@H](C)[C@@H](O)[C@H](N)[C@@H]2O)C[C@@H]2O[C@](O)(C[C@@H](O)C[C@@H](O)[C@H](O)CC[C@@H](O)C[C@@H](O)CC(=O)O[C@H]1C)C[C@H](O)[C@H]2NC(=O)NCCn1cncn1 [I-9]	> 100 µM
C[C@@H]1[C@H](O)[C@@H](C)/C=C/C=C/C=C/C=C/C=C/C=C/C=C/[C@H](O[C@@H]2O[C@H](C)[C@@H](O)[C@H](N)[C@@H]2O)C[C@@H]2O[C@](O)(C[C@@H](O)C[C@@H](O)[C@H](O)CC[C@@H](O)C[C@@H](O)CC(=O)O[C@H]1C)C[C@H](O)[C@H]2NC(=O)NC1CN(C)C1 [I-62]	50 µM
